{"source": "patent US20090062291A1", "about": "“PHOSPHODIESTERASE 10 INHIBITORS” (priority 2007, published 2009)"}
{"target": "T1, mPDE10A7 (Mus musculus, UniProt Q8CA95)", "T1 sequence (Q8CA95 446-763 limits assumed)": "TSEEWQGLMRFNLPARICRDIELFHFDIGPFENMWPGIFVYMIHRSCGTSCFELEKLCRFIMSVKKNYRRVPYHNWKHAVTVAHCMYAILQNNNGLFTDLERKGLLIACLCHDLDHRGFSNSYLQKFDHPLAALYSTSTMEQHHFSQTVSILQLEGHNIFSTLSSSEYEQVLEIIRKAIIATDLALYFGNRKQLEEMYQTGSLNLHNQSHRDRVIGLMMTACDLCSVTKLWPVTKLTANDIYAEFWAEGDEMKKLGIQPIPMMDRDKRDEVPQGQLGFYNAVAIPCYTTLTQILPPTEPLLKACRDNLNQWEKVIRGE", "experiment": "mPDE10A7 enzyme inhibition (IMAP fluorescence polarization)", "assay_type": "biochemical", "conditions": "fluorescein labeled cAMP or cGMP substrate, 30 min at room temperature", "experimental": "Enzyme Activity. To analyze the enzyme activity, 5 μL of serial diluted mPDE10A7 containing lysate were incubated with equal volumes of diluted (100-fold) fluorescein labeled cAMP or cGMP for 30 min in MDC HE 96-well assay plates (Molecular Devices Corp., Sunnyvale Calif.) at room temperature. Both the enzyme and the substrates were diluted in the following assay buffer: Tris/HCl (pH 8.0) 50 mM, MgCl2 5 mM, 2-mercaptoethanol 4 mM, and BSA 0.33 mg/mL. After incubation, the reaction was stopped by adding 20 μL of diluted (400-fold) binding reagents and was incubated for an hour at room temperature. The plates were counted in an Analyst GT (Molecular Devices) for fluorescence polarization. An IMAP assay kit (Molecular Devices) was used to assess enzyme properties of mPDE10A7. Data were analyzed with SOFTMAX PRO software (Molecular Devices).\nEnzyme Inhibition. To check the inhibition profile, 10 μL of serial diluted compounds were incubated with 30 μl of diluted PDE enzymes in a 96-well polystyrene assay plate for 30 min at room temperature. After incubation, 5 μL of the compound-enzyme mixture were aliquoted into a MDC HE black plate, mixed with 5 μL of 100-fold diluted fluorescein labeled substrates (cAMP or cGMP), and incubated for 30 min at room temperature. The reaction was stopped by adding 20 μL of diluted binding reagents and counted in an Analyst GT for fluorescence polarization. The data were analyzed with SoftMax Pro.\nThe IC50 values of a representative number of compounds of the invention in the above assay are as follows: […]", "units": {"IC50": "nM"}}
{"smiles": "COc1cc2nncc(-c3ccc(N[C@H]4CCCc5c(Br)cccc54)nc3)c2cc1OC", "note": "[Cpd 11]", "IC50": 258}
{"smiles": "COc1cc2nncc(-c3cnc(NC(C)C)c(C(N)=O)c3)c2cc1OC", "note": "[Cpd 26]", "IC50": 9}
{"smiles": "COc1cc2nncc(-c3ccc(NC4CCc5cccc(OC)c5C4)nc3)c2cc1OC", "note": "(stereo not shown) [Cpd 14]", "IC50": 143}
{"smiles": "COc1cc2nncc(-c3ccc(NC4CCOc5ccccc54)nc3)c2cc1OC", "note": "(stereo not shown) [Cpd 8]", "IC50": 12}
{"smiles": "C=Cc1cc(-c2cnnc3cc(OC)c(OC)cc23)cnc1NC(C)C", "note": "[Cpd 22]", "IC50": 1.7}
{"smiles": "COc1cc2nncc(-c3cnc(NC(C)C)c(C#N)c3)c2cc1OC", "note": "[Cpd 25]", "IC50": 12}
{"smiles": "COc1cc2nncc(-c3ccc(NC4CCCc5ncccc54)nc3)c2cc1OC", "note": "(stereo not shown) [Cpd 5]", "IC50": 2.3}
{"smiles": "COc1cc2nncc(-c3cnc(N4CCC(C(C)(C)O)CC4)c(C4CC4)c3)c2cc1OC", "note": "[Cpd 1, 2-(1-(3-cyclopropyl-5-(6,7-dimethoxycinnolin-4-yl)pyridin-2-yl)piperidin-4-yl)propan-2-ol]", "IC50": 1.1}
{"smiles": "COc1cc2nncc(-c3ccc(N[C@@H]4CCCc5ncccc54)nc3)c2cc1OC", "note": "[Cpd 6]", "IC50": 2.6}
{"smiles": "COc1cc2nncc(-c3cnc(N4CCC(O)(c5cccnc5)CC4)c(C4CC4)c3)c2cc1OC", "note": "[Cpd 15]", "IC50": 0.2}
